Laboratory results from patent US10918741B2, “PSMA-targeting imaging agents” (THE CLEVELAND CLINIC FOUNDATION, priority 2014, dated 2021).
Entries after “also recorded” stand apart in the source; their conditions may differ. Like-named read-outs stand apart in the source and are kept apart here. *1 amine or outer side, *2 acyl side, *3 side chain or, on linkers, in order; H or OH if unused. Where a SMILES comes first, the peptide text is derived from it. [ ]: non-standard residue; d: D form. γGlu = O=C(O)[C@H](CCC(=O)[*:2])N[*:1]; X1 = O=C(C1CCC(CN[*:1])CC1)[*:2]; CO = O=C([*:1])[*:2]; Ahx = NCCCCCC(=O)O

Experiments:
[1] = published values, cited from earlier work; for Blood pool activity: 2 hours post injection; for liver background: at 2 hours
[2] = target: T1, PSMA (Homo sapiens, UniProt Q04609); test: Competitive binding assay; parameters: endogenous in cells; host or cells: LNCaP (endogenous PSMA, from ATCC) or PC3-PIP (retrovirally transformed PSMA-positive PC3, from Dr. Michel Sadelain)
T1 sequence (Q04609 whole entry): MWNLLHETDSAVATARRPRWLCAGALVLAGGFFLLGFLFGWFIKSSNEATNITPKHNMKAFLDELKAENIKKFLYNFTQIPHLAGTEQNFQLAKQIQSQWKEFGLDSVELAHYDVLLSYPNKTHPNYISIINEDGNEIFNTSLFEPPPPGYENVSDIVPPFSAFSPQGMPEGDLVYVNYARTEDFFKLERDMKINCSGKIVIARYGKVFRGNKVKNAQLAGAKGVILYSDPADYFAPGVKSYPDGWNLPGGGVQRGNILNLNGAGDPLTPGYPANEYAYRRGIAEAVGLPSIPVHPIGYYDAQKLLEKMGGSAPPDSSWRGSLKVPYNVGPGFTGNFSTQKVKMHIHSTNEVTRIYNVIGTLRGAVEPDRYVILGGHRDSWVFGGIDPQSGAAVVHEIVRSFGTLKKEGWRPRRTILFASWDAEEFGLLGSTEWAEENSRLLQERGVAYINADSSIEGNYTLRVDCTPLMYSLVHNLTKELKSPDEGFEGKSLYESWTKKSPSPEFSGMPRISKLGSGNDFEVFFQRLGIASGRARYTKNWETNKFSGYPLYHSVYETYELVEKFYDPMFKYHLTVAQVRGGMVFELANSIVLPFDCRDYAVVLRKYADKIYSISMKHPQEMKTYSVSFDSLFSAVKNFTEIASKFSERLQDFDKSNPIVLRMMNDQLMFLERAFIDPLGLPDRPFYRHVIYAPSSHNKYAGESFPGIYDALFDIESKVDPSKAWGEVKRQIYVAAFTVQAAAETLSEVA
Procedure: The prostate cancer cell line LNCaP (PSMA-positive) was obtained from American Type Culture Collection (Manassas, Va.). Retrovirally transformed PSMA positive PC3-PIP cells and transfection controlled PC3-flu cells were obtained from Dr. […] (Laboratory of Gene Transfer and Gene Expression, Gene Transfer and Somatic Cell Engineering Facility, Memorial-Sloan Kettering Cancer Center, New York, N.Y.). Cells were grown at 37° C. and 5% CO2 under a humidified atmosphere. […] The mixture was centrifuged at 3,000 g for 5 min at 4° C., then washed three times with 500 μL of cold PBS. […] The concentration required to inhibit 50% of binding was determined (IC50) by Graph Pad Prism 3.0.

[3] = target: T1, PSMA; conditions: cited from earlier work; for lesion detection in humans, in words / non-PSMA related background in humans, in words: early human trials; for (per patient) lesion detection rate: 37 patients with prostate cancer
[4] = Biodistribution study of [Al^18F]5; format: in vivo, mice; conditions: male, NSG, mouse, total radioactivity
Procedure: (§1) Positron emission tomography and biodistribution study of [Al^18F]5: Male NSG mice at least 6 weeks old were subcutaneously implanted with two human PC3-PIP (PSMA+) tumor xenographs. When one of the tumors reached 0.5 mL in volume, imaging and biodistribution studies were conducted. For imaging, 0.3-0.4 mCi of [Al^18F]5 was injected via the tail vein. The mouse was anesthetized with isoflurane and imaged at 1 hour post injection on a clinical PET/CT scanner (Biograph mCT, Siemens Molecular Imaging, Hoffman Estates, Ill.) using super-resolution sampling and iterative deconvolution processing. For the biodistribution study without imaging, 50-150 μCi of [Al^18F]5 was injected in PC3-PIP tumor bearing mice which were sacrificed at one and two hours post injection for biodistribution measurements.

[5] = test system: PC3-PIP (PSMA+) tumor xenographs; test: Biodistribution study of [Al^18F]5; format: in vivo, mice; conditions: for Biodistribution: Tumor (PC3PIP): preliminary
Procedure: as §1

[6] = blood, read-out: Biodistribution: Blood
[7] = liver, read-out: Biodistribution: Liver

## O=C(O)CC[C@H](NC(=O)N[C@@H](CCCCNC(=O)c1ccc([18F])nc1)C(=O)O)C(=O)O [^18F-DCFPyL]
[1]
  Blood pool activity: 0.4 % ID/g
  liver background: 2.1 % ID/g

## O=C(O)CC[C@H](NC(=O)N[C@@H](CSC1CC(=O)N(CC2CCC(C(=O)NCCCCCC(=O)N[C@@H](Cc3ccc(O)cc3)C(=O)N[C@@H](Cc3ccc(O)cc3)C(=O)N[C@@H](Cc3ccc(O)cc3)C(=O)NCC(=O)O)CC2)C1=O)C(=O)O)C(=O)O (stereo partly drawn) [Compound 2, ZJ-MCC-Ahx-YYYG]
[2]
  affinity for PSMA, comparison in words: affinity comparable to the parent urea ligand; also recorded: Neither compound came close to matching the affinity of RBI-1033

## O=C(O)CC[C@H](NC(=O)N[C@@H](CSCc1ccc([18F])cc1)C(=O)O)C(=O)O [^18F-DCFBC]
[1]
  Blood pool activity: 0.4 % ID/g
  liver background: 2.1 % ID/g
[3]
  lesion detection in humans, in words: detected lymph node and bone metastases at 2 hr post injection
  non-PSMA related background in humans, in words: elevated liver background and unexpected blood pool retention

## O=C(O)CC[C@H](NC(=O)N[C@@H](CSC1CC(=O)N(CC2CCC(C(=O)NCCCCCC(=O)N[C@H](CCC(=O)O)C(=O)N[C@H](CCC(=O)O)C(=O)N[C@H](CCC(=O)O)C(=O)NCC(=O)O)CC2)C1=O)C(=O)O)C(=O)O (stereo partly drawn) [Compound 1, ZJ-MCC-Ahx-dEdEdEG]
[2]
  affinity for PSMA, comparison in words: affinity comparable to the parent urea ligand; also recorded: Neither compound came close to matching the affinity of RBI-1033
[2]; LNCaP or PC3-PIP cells, 12 nM [^3H] ligand, 1 hour at 37° C., 95% confidence intervals in parentheses
  IC50: 2.2 nM

## O=C(O)CC[C@H](NC(=O)N[C@@H](CCCCNCc1ccc([123I])cc1)C(=O)O)C(=O)O [^123I-MIP-1072]
[1]
  Blood pool activity: 0.21 % ID/g
  liver background: 2.17 % ID/g
[3]
  lesion detection in humans, in words: detection of soft tissue and bone metastases, as well as tumors in the prostate bed
  non-PSMA related background in humans, in words: significant uptake in salivary glands, lacrimal glands, and liver

## NC(=O)[C@H](CCCCNC(=S)Nc1ccc(CC2CN(CC(=O)O)CCN(CC(=O)O)CCN2CC(=O)O)cc1)NC(=O)[C@H](Cc1ccc(O)cc1)NC(=O)[C@H](CCC(=O)O)NC(=O)[C@H](CCC(=O)O)NC(=O)[C@H](CCC(=O)O)NC(=O)CCCCCNC(=O)CC[C@H](NC(=O)N[C@@H](CCC(=O)O)C(=O)O)C(=O)O (single isomer, unassigned) [Compound 5, E′E-Ahx-EEEYK(Bn-NOTA)-NH2]
[2]
  affinity for PSMA, comparison in words: same affinity for PSMA as compound 4

## NC(=O)[C@H](CS)NC(=O)CNC(=O)CNC(=O)CNC(=O)[C@H](Cc1ccc(O)cc1)NC(=O)CNC(=O)[C@@H](CCC(=O)O)NC(=O)[C@@H](CCC(=O)O)NC(=O)[C@@H](CCC(=O)O)NC(=O)CCCCCNC(=O)C1CCC(CNC(=O)CC[C@H](NC(=O)N[C@@H](CCC(=O)O)C(=O)O)C(=O)O)CC1 (stereo partly drawn) [Compound 3, E′E-Amc-Ahx-dEdEdEGYGGGC-NH2] ({Glu-CO-γGlu}-[X1][Ahx][dE][dE][dE]GYGGGC-NH2)
[2]
  affinity for PSMA, comparison in words: equivalent to compound 1

## NC(=O)[C@H](CCCCNC(=S)Nc1ccc(CC2CN(CC(=O)O)CCN(CC(=O)O)CCN2CC(=O)O)cc1)NC(=O)[C@H](Cc1ccc(O)cc1)NC(=O)[C@H](CCC(=O)O)NC(=O)[C@H](CCC(=O)O)NC(=O)[C@H](CCC(=O)O)NC(=O)CCCCCNC(=O)CC[C@H](NC(=O)N[C@@H](CCC(=O)O)C(=O)O)C(=O)O (single isomer, unassigned) [[Al^18F]5]
[4]; [6]
  tissue uptake at 1 h: ~0.18 %ID/g
  tissue uptake at 2 h: 0.04 %ID/g
[4]; bone, read-out: Biodistribution: Bone
  tissue uptake at 2 h: 0.1 %ID/g
[4]; [7]
  tissue uptake at 1 h: ~0.4 %ID/g
  tissue uptake at 2 h: 0.17 %ID/g
[4]; muscle, read-out: Biodistribution: Muscle
  tissue uptake at 2 h: 0.01 %ID/g
[4]; tumor (PC3-PIP), n = 6, preliminary, read-out: Biodistribution: Tumor (PC3PIP)
  tissue uptake at 2 h: 4.6 %ID/g
[5]; 1 hour
  Biodistribution: Blood: 0.18% ± 0.09%
  Biodistribution: Bone: 0.39% ± 0.28%
  Biodistribution: Heart: 0.14% ± 0.11%
  Biodistribution: Kidney: 16.82% ± 5.60%
  Biodistribution: Liver: 0.41% ± 0.10%
  Biodistribution: Lung: 0.21% ± 0.05%
  Biodistribution: Muscle: 0.19% ± 0.12%
  Biodistribution: Small Intestine: 0.43% ± 0.51%
  Biodistribution: Spleen: 0.29% ± 0.14%
  Biodistribution: Stomach: 0.10% ± 0.03%
  Biodistribution: Thyroid: 0.11% ± 0.02%
[5]; 1 hour, n = 4
  Biodistribution: Tumor (PC3PIP): 6.91% ± 1.44%
[5]; 2 hour
  Biodistribution: Heart: 0.04% ± 0.01%
  Biodistribution: Kidney: 5.96% ± 2.17%
  Biodistribution: Lung: 0.07% ± 0.04%
  Biodistribution: Small Intestine: 0.18% ± 0.02%
  Biodistribution: Spleen: 0.10% ± 0.04%
  Biodistribution: Stomach: 0.03% ± 0.02%
  Biodistribution: Thyroid: 0.05% ± 0.00%
  Tumor:blood: 115
  Tumor:bone: 46
  Tumor:liver: 27
  Tumor:muscle: 458
  Tumor:spleen: 46
[5]; 2 hour, n = 6
  Biodistribution: Tumor (PC3PIP): 4.58% ± 0.55%
[5]; mouse, in vivo
  dissociation of ^18F-fluoride from the complex (from bone uptake): no significant dissociation of ^18F-fluoride from the complex
  excretion in words: very fast renal excretion

## O=C([O-])CN(CCN(CC(=O)[O-])Cc1cc(CCC(=O)NCCCCCC(=O)NCCCC[C@H](NC(=O)N[C@@H](CCC(=O)O)C(=O)O)C(=O)O)ccc1[O-])Cc1cc(CCC(=O)O)ccc1[O-].[68Ga+3].[OH3+] [Glu-NH—CO—NHLys(Ahx)-[^68Ga(HBED-CC)]]
[3]; at PSA <2.2 ng/ml
  (per patient) lesion detection rate: 60%
[3]; at PSA >2.2 ng/ml
  (per patient) lesion detection rate: 100%
[3]
  non-PSMA related background in humans, in words: significant uptake in salivary glands, lacrimal glands, and liver

## O=C(O)CC[C@H](NC(=O)N[C@@H](CCCCNC(=O)Nc1ccc([123I])cc1)C(=O)O)C(=O)O [^123I-MIP-1095]
[3]
  lesion detection in humans, in words: detection of soft tissue and bone metastases, as well as tumors in the prostate bed
  non-PSMA related background in humans, in words: significant uptake in salivary glands, lacrimal glands, and liver
